In the supplement of paper PMC10307832:

Columns and labels:
Test in all cases: relative viability (nuclei count vs DMSO), 5 days (fraction); higher = more cells survive
CX-5461 + Phenformin = compound: Cc1cnc(CNC(=O)c2c(=O)c3ccc(N4CCCN(C)CC4)nc3n3c2sc2ccccc23)cn1 [CX-5461] + N=C(N)NC(=N)NCCc1ccccc1 [Phenformin] (partner 250 µM)
Method in brief: (§1)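 Nuclei were stained with Hoechst during a one-step fixation (final 0.05% Triton X-100, 1% formaldehyde, 1 ug/ml Hoechst) carried out 5 days after dosing, then counted on 4× images. The cells, lung cancer lines in 1536-well plates, had been dosed by pin tool the day after seeding with one drug alone or a fixed anchor-drug dose plus five library-drug doses (not always all listed) in √10 steps. Relative viability is the nuclei count in treated wells divided by that in vehicle wells, and each value is the median of duplicate plates.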

IMD-0354 + Vorinostat = compound: O=C(Nc1cc(C(F)(F)F)cc(C(F)(F)F)c1)c1cc(Cl)ccc1O [IMD-0354] + O=C(CCCCCCC(=O)Nc1ccccc1)NO [Vorinostat] (partner 1 µM)
Method in brief: as §1

IMD-0354 + Trametinib = compound: O=C(Nc1cc(C(F)(F)F)cc(C(F)(F)F)c1)c1cc(Cl)ccc1O [IMD-0354] + CC(=O)Nc1cccc(-n2c(=O)n(C3CC3)c(=O)c3c(Nc4ccc(I)cc4F)n(C)c(=O)c(C)c32)c1 [Trametinib] (partner 0.02 µM)
Method in brief: as §1

IMD-0354 + Pictilisib = compound: O=C(Nc1cc(C(F)(F)F)cc(C(F)(F)F)c1)c1cc(Cl)ccc1O [IMD-0354] + CS(=O)(=O)N1CCN(Cc2cc3nc(-c4cccc5[nH]ncc45)nc(N4CCOCC4)c3s2)CC1 [Pictilisib] (partner 1 µM)
Method in brief: as §1

Row | Cell Line | relative viability (CX-5461 + Phenformin; first compound 0.01 µM) | relative viability (CX-5461 + Phenformin; first compound 0.03162 µM) | relative viability (CX-5461 + Phenformin; first compound 0.1 µM) | relative viability (CX-5461 + Phenformin; first compound 0.3162 µM) | relative viability (CX-5461 + Phenformin; first compound 1 µM) | relative viability (IMD-0354 + Vorinostat; first compound 0.04 µM) | relative viability (IMD-0354 + Vorinostat; first compound 0.1265 µM) | relative viability (IMD-0354 + Vorinostat; first compound 0.4 µM) | relative viability (IMD-0354 + Vorinostat; first compound 1.265 µM) | relative viability (IMD-0354 + Vorinostat; first compound 4 µM) | relative viability (IMD-0354 + Trametinib; first compound 0.04 µM) | relative viability (IMD-0354 + Trametinib; first compound 0.1265 µM) | relative viability (IMD-0354 + Trametinib; first compound 0.4 µM) | relative viability (IMD-0354 + Trametinib; first compound 1.265 µM) | relative viability (IMD-0354 + Trametinib; first compound 4 µM) | relative viability (IMD-0354 + Pictilisib; first compound 0.04 µM) | relative viability (IMD-0354 + Pictilisib; first compound 0.1265 µM) | relative viability (IMD-0354 + Pictilisib; first compound 0.4 µM) | relative viability (IMD-0354 + Pictilisib; first compound 1.265 µM) | relative viability (IMD-0354 + Pictilisib; first compound 4 µM)
1 | 201T | 0.468 | 0.431 | 0.464 | 0.441 | 0.388 | 0.958 | 1.07 | 0.813 | 0.537 | 0.31 | 0.732 | 0.74 | 0.611 | 0.727 | 0.319 | 0.785 | 0.661 | 0.584 | 0.59 | 0.41
2 | A549 | 0.155 | 0.165 | 0.104 | 0.0393 | 0.0272 | – | – | – | – | – | – | – | – | – | – | 0.655 | 0.547 | 0.237 | 0.0721 | 0.124
3 | A-427 | 0.338 | 0.348 | 0.36 | – | 0.223 | 0.891 | 0.855 | 0.397 | 0.164 | 0.162 | 0.878 | 0.73 | 0.636 | 0.176 | 0.162 | 0.749 | 0.683 | 0.674 | 0.164 | 0.116
4 | ABC-1 | 0.23 | 0.212 | 0.213 | – | 0.212 | 1.1 | 1.22 | 0.575 | – | 0.443 | – | – | – | – | – | 0.753 | 0.643 | 0.447 | 0.25 | 0.263
5 | BEN | 0.28 | 0.263 | 0.253 | 0.28 | 0.268 | 0.586 | 0.667 | 0.48 | 0.441 | 0.391 | 1.07 | 0.853 | 0.814 | 0.472 | 0.401 | 0.639 | 0.57 | 0.369 | 0.294 | 0.211
6 | CAL-12T | 0.643 | 0.653 | 0.328 | 0.531 | 0.35 | 1.1 | 0.912 | 0.411 | 0.25 | 0.227 | 0.333 | 0.308 | 0.403 | 0.191 | 0.211 | 0.373 | 0.548 | 0.315 | 0.189 | 0.178
7 | COR-L23 | 0.472 | 0.431 | 0.414 | 0.426 | 0.301 | 0.419 | 0.466 | 0.403 | 0.0935 | 0.149 | 0.64 | 0.576 | 0.458 | 0.118 | 0.163 | 0.636 | 0.646 | 0.371 | 0.131 | 0.211
8 | COR-L 105 | 0.496 | 0.557 | 0.414 | 0.405 | 0.306 | 0.863 | 0.771 | 0.672 | 0.679 | 0.378 | 0.435 | 0.448 | 0.455 | 0.342 | 0.318 | 0.439 | 0.351 | 0.303 | 0.278 | 0.293
9 | Calu-6 | – | – | – | – | – | – | – | – | – | – | – | – | – | – | – | 0.988 | 0.87 | 0.379 | 0.121 | 0.0686
10 | ChaGo-K-1 | 0.512 | 0.527 | 0.474 | 0.299 | 0.268 | 0.851 | 0.741 | 0.519 | 0.244 | 0.255 | 0.918 | 0.872 | 0.68 | 0.718 | 0.233 | 1.11 | 1.22 | 0.495 | 0.216 | 0.301
11 | EBC-1 | – | – | – | – | – | – | – | – | – | – | – | – | – | – | – | 0.421 | 0.327 | 0.29 | 0.153 | 0.157
12 | EKVX | 0.231 | 0.236 | 0.186 | 0.224 | 0.24 | 0.469 | 0.754 | 0.556 | 0.691 | 0.359 | 0.399 | 0.3 | – | 0.339 | 0.175 | 0.477 | 0.465 | – | 0.389 | 0.174
13 | EMC-BAC-2 | 0.507 | 0.518 | 0.399 | 0.299 | 0.271 | 0.547 | 0.473 | 0.419 | – | 0.439 | 0.918 | 0.933 | 0.584 | – | 0.3 | 0.647 | 0.545 | 0.41 | 0.416 | 0.225
14 | EPLC-272H | 0.278 | 0.299 | 0.264 | – | 0.361 | 0.285 | 0.463 | 0.754 | 0.172 | 0.338 | 0.295 | 0.271 | 0.317 | 0.268 | 0.201 | 0.327 | 0.265 | 0.231 | 0.264 | 0.103
15 | H3255 | 0.373 | 0.367 | 0.374 | 0.301 | 0.338 | 0.743 | 0.796 | 0.587 | 0.43 | 0.288 | 0.612 | 0.664 | 0.472 | 0.49 | 0.311 | 0.469 | 0.421 | 0.342 | 0.34 | 0.251
16 | HARA | 0.416 | 0.414 | 0.48 | – | 0.353 | 0.562 | 0.507 | 0.355 | 0.265 | 0.072 | 0.772 | 0.517 | 0.632 | 0.225 | 0.262 | 0.598 | 0.3 | 0.393 | 0.116 | 0.193
17 | HCC-15 | 0.514 | 0.53 | 0.372 | 0.467 | 0.163 | 0.931 | 0.799 | 0.516 | 0.327 | 0.2 | 0.387 | 0.35 | 0.335 | 0.269 | 0.146 | 0.632 | 0.696 | 0.437 | 0.14 | 0.133
18 | HCC-44 | 0.179 | 0.205 | 0.145 | 0.229 | 0.136 | 1.03 | 1.05 | 1.07 | 0.873 | 0.364 | 1.09 | 1.14 | 0.973 | 1.04 | 0.319 | 0.634 | 0.534 | 0.415 | 0.12 | 0.156
19 | HCC-78 | 0.729 | 0.66 | 0.764 | 0.783 | 0.55 | 0.406 | 0.378 | 0.405 | 0.407 | 0.31 | 0.765 | 0.687 | 0.766 | 0.782 | 0.334 | 0.179 | 0.204 | 0.207 | 0.095 | 0.126
